Measurements as given in patent US8057829B2, “Methods for repelling insects using sesquiterpene hydrocarbons and their derivatives” (Sterling International Inc., priority 2008, dated 2011).

Test system: male false stable fly Muscina stabulans antenna and female mosquito Aedes (Ochlerotatus) increpitus Dyar antenna
Assay: GC-EAD responses of false stable fly and Aedes increpitus to a synthetic mixture
Conditions: about 100 ng of each compound, FIG. 5
Protocol: The GC-EAD responses of the male false stable fly Muscina stabulans antenna and the female mosquito Aedes (Ochlerotatus) increpitus Dyar antenna were tested on a synthetic mixture of linalool and two representative sesquiterpene hydrocarbons, β-caryophyllene and α-humulene, and one sesquiterpene oxide, β-caryophyllene oxide, with about 100 ng of each compound in the mixture.
The following procedures were employed to test the EAD response of an insect antenna to a repellent compound. The GC-EAD technique provides an efficient tool for screening behaviorally active repellents. Several synthetic mixtures of potential insect repellent candidates, mostly sesquiterpene hydrocarbons and derivatives, were analyzed in splitless mode using a Varian CP-3800 GC equipped with a polar column (Innowax; 1.0 μm film thickness, 30 m×0.53 mm ID; J & W Scientific), and a 1:1 effluent splitter that allowed simultaneous flame ionization detection (FID) and EAD of the separated volatile compounds. Helium was used as the carrier gas, and the injector temperature was 220° C. The column temperature was 50° C. for 2 min, rising to 240° C. at 10° C./min, then held for 10 min. The outlet for the EAD was held in a humidified air stream flowing at 0.5 liter/min. over an antennal preparation. A glass capillary indifferent electrode filled with Beadle-Ephrussi Ringer, and grounded via a silver wire, was inserted into the severed insect's head with the antennae. A similar recording electrode connected to a high-impedance DC amplifier with automatic baseline drift compensation was placed in contact with the distal end of one antenna (Zhang et al., Chemoecology, 10:69-80 (2000)). The antennal signals were stored and analyzed on a PC equipped with a serial IDAC interface box and the program EAD ver. 2.5 (Syntech, Hilversum, The Netherlands). The compound 1-octen-3-ol (known attractant for many flies and mosquitoes) was included in most of the synthetic mixtures, as a positive control. The results of the experiments are shown in FIGS. 1-10 and described above.

**Q.** How did the GC-EAD antennal activity turn out when C=C1CC/C=C(\C)CC[C@@H]2[C@@H]1CC2(C)C [β-Caryophyllene, β-caryophyllene] was run?
**A.** The GC-EAD antennal activity was “active on at least one of the insects tested”.
